Test results: patent publication US20180011102A1, “THE PROTEIN KINASE ACTIVITY OF PHOSPHOGLYCERATE KINASE 1 AS A TARGET FOR CANCER TREATMENT AND DIAGNOSIS” (Board of Regents, The University of Texas System, priority 2015, published 2018)
“Also recorded” adds a separate entry of the source.

Experiments:
histone H3 at Ser10 = assay: Western blot of EGF-induced histone H3 S10 phosphorylation; format: cell-based, human; conditions: U87 cells expressing PGK1 shRNA, EGF stimulation
PDHK1 T338 = assay: Immunoblotting of hypoxia-induced PDHK1 T338 phosphorylation; format: cell-based, human; conditions: U87 and U251 cells with PGK1 shRNA, hypoxia 6 h
Method: FIGS. 14A-P. Mitochondrial PGK1 Phosphorylates PDHK1 at T338. FIG. 14A. […] Immunoblotting analyses were performed with the indicated antibodies. FIG. 14B. U87 cells (left panel) or U87/EGFR (right panel) cells expressing PGK1 shRNA with or without reconstituted expression of WT rPGK1 and the indicated mutants were stimulated with or without hypoxia for 6 h (left panel) or EGF (100 ng/ml) (right panel) for 6 h. These cells were incubated with [1-^14C]-pyruvate for 2 h. [1-^14C]CO2 production rates were measured. FIG. 14C. U87 cells expressing SFB-PDHK1, SFB-PDHK2, SFB-PDHK3, or SFB-PDHK4 were stimulated with or without hypoxia for 6 h. Mitochondrial fractions of these cells were prepared. SFB pull-down analyses with streptavidin-conjugated beads were performed. Immunoblotting analyses were performed with the indicated antibodies. FIG. 14D. […] Phospho-amino acid analysis of gel-isolated ^32P-phosphorylated SUMO-PDHK1 was performed. […] On the autoradiogram in the right hand panel, the green circle indicates pSer; the red circle indicates pThr; and the black circle indicates pTyr. FIG. 14E. […] FIG. 14F. […] ATP concentrations in mitoplast isolated from U87 or U251 cells treated with or without hypoxia for 6 h were measured. […] The glycolytic activities of bacterially purified WT PGK1, PGK1 T378P, PGK1 S203A, and PGK1 R39/K41A were measured. […]

PDH complex = conditions: isolated mitochondria of U87 cells with PGK1 shRNA, hypoxia 6 h
Method: U87 cells with or without PGK1 shRNA and with or without reconstituted expression of WT rPGK1 or rPGK1 S203A were stimulated with or without hypoxia for 6 h. Mitochondrial fractions of the cells were prepared and activity of PDH complex-mediated conversion of ^14C-labeled pyruvate into ^14C-labeled CO2 was measured. Data represent the means±SD of three independent experiments. *p<0.01.
The [1-^14C]-pyruvate conversion assay was performed as previously described (Pezzato et al., 2009) with minor modification. Briefly, ^14CO2 production through the PDH complex was measured using isolated mitochondria (1 mg) in the 1 ml mitochondria resuspension buffer (200 mM sucrose, 10 mM Hepes [pH 7.4], 5 mM malate, 2 mM monosodium phosphate, 2 mM ADP, 1 mM EGTA) containing [1-^14C]-pyruvate (0.1 μCi/ml). The incubation mixture in a 2-ml Eppendorf tube was placed at the bottom of a 20-ml scintillation vial with a foil-lined screw cap and maintained in agitation. The ^14CO2 produced during incubation was trapped by 1 ml of hyamine hydroxide at the bottom of the scintillation vial. […] Then, 19 ml of scintillator liquid was added to each scintillation vial and radioactivity was measured on a scintillation counter. The results were normalized based on mitochondrial protein levels measured by Bradford assay using bovine serum albumin as the standard.

PDH = assay: Immunoblotting of hypoxia-induced PDH phosphorylation; format: cell-based, human; conditions: U87 and U251 cells expressing PGK1 shRNA, hypoxia 6 h
Method: FIGS. 5A-E. PDHK1 Phosphorylation by PGK1 Activates PDHK1. Immunoblotting analyses were performed with the indicated antibodies. FIG. 5A. Bacterially purified His-PDH with purified WT PDHK1 or PDHK1 T338A was mixed with purified WT PGK1 or PGK1 T378P. In vitro phosphorylation analyses were performed. FIG. 5B. […] FIG. 5C. U87 and U251 cells expressing PDHK1 shRNA with or without reconstituted expression of WT rPDHK1 or rPDHK1 T338A were stimulated with or without hypoxia for 6 h. FIG. 5D. […] FIG. 5E.

Substance: PGK1 shRNA: pGIPZ PGK1 shRNA generated with GGATGTCTATGTCAATGATGC (SEQ ID NO: 4)
- EGF-induced phosphorylation of histone H3 at Ser10 (histone H3 at Ser10): blocked; also recorded: greatly diminished
- hypoxia-induced PDHK1 T338 phosphorylation (PDHK1 T338): blocked
- hypoxia-induced suppression of conversion of pyruvate to CO2 (PDH complex): significantly counteracted
- hypoxia-induced PDH phosphorylation (PDH): blocked
